# Patent publication US11312712B2, “Azabenzimidazoles and their use as AMPA receptor modulators” (Janssen Pharmaceutica NV, priority 2015, dated 2022)
# Target: GluA1o-γ8 (GRIA1o-CACNG8 fusion construct) (Homo sapiens (Human), UniProt P42261+Q8WXS5)
# Assay: Calcium flux assay (FLIPR), inhibition of TARP γ8 dependent AMPA receptor activity
# Format: cell-based
# Settings: GluA1o-γ8 (GRIA1o-CACNG8 fusion) in HEK293 cells, calcium flux after 15 μM glutamate
# Description: This assay was used to test compounds for their ability to inhibit TARP γ8 dependent AMPA receptor activity. The AMPA receptor is a non-selective cation channel activated by glutamate. Ionotropic glutamate receptors normally desensitize too rapidly to allow detectable calcium influx in a FLIPR assay (Strange et al. (2006). “Functional characterisation of homomeric ionotropic glutamate receptors GluR1-GluR6 in a fluorescence-based high throughput screening assay.” Comb Chem High Throughput Screen 9(2): 147-158). But, this desensitization is incomplete, and a substantial steady-state current remains in the sustained presence of glutamate (Cho et al. (2007). “Two families of TARP isoforms that have distinct effects on the kinetic properties of AMPA receptors and synaptic currents.” Neuron 55(6): 890-904).
# An in vitro assay was used to determine the potency of test compounds as inhibitors of the glutamate response of the channel formed by GluA1o-γ8. To ensure a 1:1 stoichiometry of GluA1o and γ8 subunits in the expressed channel, a fusion of the cDNAs for GRIA1o and CACNG8 was used. Following Shi et al (2009) “The stoichiometry of AMPA receptors and TARPs varies by neuronal cell type.” Neuron 62(5): 633-640), the C-terminus of the cDNA for GRIA1o was fused to the N-terminus of the cDNA for γ8. The linker sequence was QQQQQQQQQQEFAT. Channels expressed with this construct appear to have similar properties to channels formed by co-expression of GRIA1o with an excess of CACNG8 (Shi et al. 2009). A clonal cell line in HEK293 cells stably expressing this construct, with a geneticin selection marker, was generated for use in this assay.
# Cell expressing the GRIA1o-CACNG8 fusion construct were grown in a monolayer in 96- or 384-well microtiter plates. They were washed with assay buffer (135 mM NaCl, 4 mM KCl, 3 mM CaCl2, 1 mM MgCl2, 5 mM glucose, 10 mM HEPES, pH 7.4, 300 mOs) using a Biotek EL405 plate washer. The cells were then loaded with a calcium-sensitive dye (Calcium-5 or Calcium-6, Molecular Devices) and the test compounds at a range of concentrations. Calcium flux following the addition of 15 μM glutamate was monitored using a Molecular Devices FLIPR Tetra. The fluorescence in each well was normalized to the fluorescence of negative and positive control wells. The negative control wells had no added compounds, and the positive control wells had been incubated with 10 μM CP465022 (a non-subtype-selective AMPA receptor antagonist) (Lazzaro et al. (2002). “Functional characterization of CP-465,022, a selective, noncompetitive AMPA receptor antagonist.” Neuropharmacology 42(2): 143-153). The responses to glutamate as functions of the test compound concentrations were fitted to a four-parameter logistic function. The fitted parameter corresponding to the midpoint was taken to be the potency of inhibition of the compound. The data in Table 4 below illustrates the observed potentcy for the compounds described herein. pIC50 refers to the negative log of the IC50 in molar.
# GluA1o-γ8 (GRIA1o-CACNG8 fusion construct), sequence (P42261 other isoform, or with tags, fused parts or gaps): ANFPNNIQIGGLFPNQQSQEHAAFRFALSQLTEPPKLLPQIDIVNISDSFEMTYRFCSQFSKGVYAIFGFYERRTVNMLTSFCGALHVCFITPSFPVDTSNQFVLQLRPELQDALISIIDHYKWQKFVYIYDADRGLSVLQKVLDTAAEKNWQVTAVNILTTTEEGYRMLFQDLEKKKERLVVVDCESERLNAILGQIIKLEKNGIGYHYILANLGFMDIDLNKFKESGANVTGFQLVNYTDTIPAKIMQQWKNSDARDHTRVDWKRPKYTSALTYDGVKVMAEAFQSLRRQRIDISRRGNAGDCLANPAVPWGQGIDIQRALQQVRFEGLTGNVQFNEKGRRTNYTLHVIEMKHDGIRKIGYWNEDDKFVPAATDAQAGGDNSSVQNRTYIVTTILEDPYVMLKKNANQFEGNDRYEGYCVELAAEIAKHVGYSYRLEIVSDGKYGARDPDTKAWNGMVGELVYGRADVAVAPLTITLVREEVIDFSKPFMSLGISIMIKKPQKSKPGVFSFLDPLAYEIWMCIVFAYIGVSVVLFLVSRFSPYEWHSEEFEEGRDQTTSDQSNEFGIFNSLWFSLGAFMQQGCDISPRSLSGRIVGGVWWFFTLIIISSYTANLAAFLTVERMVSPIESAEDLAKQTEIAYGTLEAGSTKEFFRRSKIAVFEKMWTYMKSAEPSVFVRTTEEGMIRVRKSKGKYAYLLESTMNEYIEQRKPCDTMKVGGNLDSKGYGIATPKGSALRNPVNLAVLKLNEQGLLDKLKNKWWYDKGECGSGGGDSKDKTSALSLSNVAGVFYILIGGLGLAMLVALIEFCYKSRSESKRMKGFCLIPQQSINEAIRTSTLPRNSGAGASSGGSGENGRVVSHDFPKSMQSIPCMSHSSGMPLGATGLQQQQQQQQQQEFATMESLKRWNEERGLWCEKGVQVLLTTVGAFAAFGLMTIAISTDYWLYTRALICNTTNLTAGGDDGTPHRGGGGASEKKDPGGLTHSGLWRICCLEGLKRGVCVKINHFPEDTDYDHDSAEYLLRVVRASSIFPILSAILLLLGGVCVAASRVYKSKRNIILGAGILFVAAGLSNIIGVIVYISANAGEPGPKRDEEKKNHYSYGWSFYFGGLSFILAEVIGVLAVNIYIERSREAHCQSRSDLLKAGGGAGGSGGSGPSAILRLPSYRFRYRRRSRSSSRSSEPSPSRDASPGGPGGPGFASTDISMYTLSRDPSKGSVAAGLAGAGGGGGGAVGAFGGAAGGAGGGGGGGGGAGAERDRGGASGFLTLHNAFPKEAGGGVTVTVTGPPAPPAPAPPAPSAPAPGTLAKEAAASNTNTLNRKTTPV
row,IC50 [nM],Compound
1,25.1,"Oc1ccc2nc(-c3ccccc3)n(-c3ccc4[nH]ncc4c3)c2n1 [Example 156, 3-(1H-Indazol-5-yl)-2-phenyl-imidazo[4,5-b]pyridin-5-ol]"
2,39.8,"O=c1[nH]c2ccc(-n3c(-c4ccc(F)cc4)nc4ccc(CO)nc43)cc2s1 [Example 71, 6-(2-(4-Fluorophenyl)-5-(hydroxymethyl)-3H-imidazo[4,5-b]pyridin-3-yl)benzo[d]thiazol-2(3H)-one]"
3,0.0158,"CC(F)(F)c1nc2ccc(C(F)(F)F)nc2n1-c1cc(Cl)c2[nH]ncc2c1 [Example 267, 3-(7-Chloro-1H-indazol-5-yl)-2-(1,1-difluoroethyl)-5-(trifluoromethyl)imidazo[4,5-b]pyridine]"
4,0.398,"CCc1nc2ccc(C(F)(F)F)nc2n1-c1ccc2[nH]c(=O)sc2c1 [Example 44, 6-[2-Ethyl-5-(trifluoromethyl)imidazo[4,5-b]pyridin-3-yl]-3H-1,3-benzothiazol-2-one]"
5,0.0631,"Cc1ccc2nc(C(F)(F)F)n(-c3cc(Cl)c4[nH]ncc4c3)c2n1 [Example 268, 3-(7-Chloro-1H-indazol-5-yl)-5-methyl-2-(trifluoromethyl)imidazo[4,5-b]pyridine]"
6,79.4,"O=C(Nc1ccccc1)c1nc2ccc(C(F)(F)F)nc2n1-c1ccc2[nH]ncc2c1 [Example 85, 3-(1H-Indazol-5-yl)-N-phenyl-5-(trifluoromethyl)imidazo[4,5-b]pyridine-2-carboxamide]"
7,0.398,"Cc1ccc2cc(-c3ccc(F)cc3)n(-c3ccc4c(c3)CC(=O)N4)c2n1 [Example 382, 5-[2-(4-Fluorophenyl)-6-methyl-pyrrolo[2,3-b]pyridin-1-yl]indolin-2-one]"
8,0.631,"Cc1cc(-n2c(C)nc3ccc(C(F)(F)F)nc32)cc2c1NC(=O)C2 [Example 309, 7-Methyl-5-[2-methyl-5-(trifluoromethyl)imidazo[4,5-b]pyridin-3-yl]indolin-2-one]"
9,251,"CC(C)(C)c1nc2ccc(C(F)(F)F)nc2n1-c1ccc2[nH]ccc2c1 [Example 59, 2-tert-Butyl-3-(1H-indol-5-yl)-5-(trifluoromethyl)imidazo[4,5-b]pyridine]"
10,0.0794,"C[C@H](F)c1nc2ccc(C(F)(F)F)nc2n1-c1cc(Cl)c2[nH]ncc2c1 (single isomer, unassigned) [Example 409, (*S)-3-(7-Chloro-1H-indazol-5-yl)-2-(1-fluoroethyl)-5-(trifluoromethyl)-3H-imidazo[4,5-b]pyridine]"
11,3.98,"O=C1Cc2cc(-n3c(-c4ccc(F)cc4)c(Br)c4cccnc43)ccc2N1 [Example 346, 5-[3-Bromo-2-(4-fluorophenyl)pyrrolo[2,3-b]pyridin-1-yl]indolin-2-one]"
12,0.794,"Cc1ccc2nc(-c3ccc(F)cc3)n(-c3ccc4[nH]c(=O)sc4c3)c2n1 [Example 27, 6-[2-(4-Fluorophenyl)-5-methyl-imidazo[4,5-b]pyridin-3-yl]-3H-1,3-benzothiazol-2-one]"
13,0.794,"Cc1ccc2nc(C3CCC3)n(-c3ccc4[nH]ncc4c3)c2n1 [Example 149, 2-Cyclobutyl-3-(1H-indazol-5-yl)-5-methyl-imidazo[4,5-b]pyridine]"
14,5.01,"FC(F)(F)c1ccc2nc(C3CCCC3)n(-c3ccc4[nH]ncc4c3)c2n1 [Example 104, 2-Cyclopentyl-3-(1H-indazol-5-yl)-5-(trifluoromethyl)imidazo[4,5-b]pyridine]"
15,0.0501,"FCCOc1cc(C(F)(F)F)nc2c1nc(C(F)(F)F)n2-c1cc(Cl)c2[nH]ncc2c1 [Example 218, 3-(7-Chloro-1H-indazol-5-yl)-7-(2-fluoroethoxy)-2,5-bis(trifluoromethyl)imidazo[4,5-b]pyridine]"
16,63.1,"Cc1nc2ccc(C(F)(F)F)nc2n1-c1ccc2c(c1)CC(=O)N2 [Example 47, 5-[2-Methyl-5-(trifluoromethyl)imidazo[4,5-b]pyridin-3-yl]indolin-2-one]"
17,0.0501,"CC(C)c1cc2ccc(C(F)(F)F)nc2n1-c1cnc2[nH]ncc2c1 [Example 376, 5-[2-Isopropyl-6-(trifluoromethyl)pyrrolo[2,3-b]pyridin-1-yl]-1H-pyrazolo[3,4-b]pyridine]"

row,IC50 [nM],Compound
1,3.98,"COc1ccc2nc(-c3ccccc3)n(-c3ccc4[nH]c(=O)sc4c3)c2n1 [Example 18, 6-(5-Methoxy-2-phenyl-imidazo[4,5-b]pyridin-3-yl)-3H-1,3-benzothiazol-2-one]"
2,2.51,"O=C1Cc2cc(-n3c(-c4ccc(F)cc4)cc4cccnc43)ccc2N1 [Example 347, 5-[2-(4-Fluorophenyl)pyrrolo[2,3-b]pyridin-1-yl]indolin-2-one]"
3,0.398,"CC(C)c1nc2ccc(C(F)(F)F)nc2n1-c1ccc2[nH]c(=O)sc2c1 [Example 45, 6-[2-Isopropyl-5-(trifluoromethyl)imidazo[4,5-b]pyridin-3-yl]-3H-1,3-benzothiazol-2-one]"
4,0.158,"FC(F)(F)c1ccc2nc(CC3CC3)n(-c3cc(Cl)c4[nH]ncc4c3)c2n1 [Example 411, 3-(7-Chloro-1H-indazol-5-yl)-2-(cyclopropylmethyl)-5-(trifluoromethyl)-3H-imidazo[4,5-b]pyridine]"
5,12.6,"Cc1cc(-n2c(C)cc3cccnc32)cc2c1NC(=O)C2 [Example 353, 7-Methyl-5-(2-methyl-1H-pyrrolo[2,3-b]pyridin-1-yl)indolin-2-one]"
6,0.126,"Cc1cc(-n2c(C(F)(F)F)nc3ccc(C(F)(F)F)nc32)cc2c1NC(=O)C2 [Example 275, 5-[2,5-Bis(trifluoromethyl)imidazo[4,5-b]pyridin-3-yl]-7-methyl-indolin-2-one]"
7,0.01,"FC(F)(F)c1ccc2nc(C(F)(F)F)n(-c3cc(Br)c4[nH]ncc4c3)c2n1 [Example 187, 3-(7-Bromo-1H-indazol-5-yl)-2,5-bis(trifluoromethyl)imidazo[4,5-b]pyridine]"
8,0.0398,"Cc1cc(-n2c(C(C)C)cc3ccc(C(F)F)nc32)cc2c1NC(=O)C2 [Example 334, 5-[6-(Difluoromethyl)-2-isopropyl-pyrrolo[2,3-b]pyridin-1-yl]-7-methyl-indolin-2-one]"
9,2.51,"Cc1ccc2nc(-c3ccnc(F)c3)n(-c3ccc4[nH]c(=O)sc4c3)c2n1 [Example 29, 6-[2-(2-Fluoro-4-pyridyl)-5-methyl-imidazo[4,5-b]pyridin-3-yl]-3H-1,3-benzothiazol-2-one]"
10,25.1,"Cc1cc2ccc(C(F)(F)F)nc2n1-c1ccc2[nH]ccc2c1 [Example 351, 1-(1H-Indol-5-yl)-2-methyl-6-(trifluoromethyl)pyrrolo[2,3-b]pyridine]"
11,1.26,"O=C1Cc2cc(-n3c(-c4ccnc(F)c4)nc4ccc(C(F)(F)F)nc43)ccc2N1 [Example 164, 5-[2-(2-Fluoro-4-pyridyl)-5-(trifluoromethyl)imidazo[4,5-b]pyridin-3-yl]indolin-2-one]"
12,1.58,"CCc1ccc2nc(C(F)(F)F)n(-c3ccc4[nH]ncc4c3)c2n1 [Example 193, 5-Ethyl-3-(1H-indazol-5-yl)-2-(trifluoromethyl)imidazo[4,5-b]pyridine]"
13,0.0501,"FC(F)c1ccc2nc(C3CC3)n(-c3cc(Cl)c4[nH]ncc4c3)c2n1 [Example 227, 3-(7-Chloro-1H-indazol-5-yl)-2-cyclopropyl-5-(difluoromethyl)imidazo[4,5-b]pyridine]"
14,1,"Clc1ccc2nc(-c3ccccc3)n(-c3ccc4[nH]ncc4c3)c2n1 [Example 10, 5-Chloro-3-(1H-indazol-5-yl)-2-phenyl-imidazo[4,5-b]pyridine]"
15,2.51,"O=C1Cc2cc(-n3c(C(F)(F)F)nc4ccc(C(F)F)nc43)ccc2N1 [Example 153, 5-[5-(Difluoromethyl)-2-(trifluoromethyl)imidazo[4,5-b]pyridin-3-yl]indolin-2-one]"
16,6.31,"O=C1Cc2cc(-n3c(C(F)F)nc4ccc(C(F)(F)F)nc43)cc(F)c2N1 [Example 288, 5-[2-(Difluoromethyl)-5-(trifluoromethyl)imidazo[4,5-b]pyridin-3-yl]-7-fluoro-indolin-2-one]"
